For one experiment, the target named is Mcl-1 (Homo sapiens (Human), UniProt Q07820). Nature of the experiment: Fluorescence polarization anisotropy (FPA) competition assay, FITC-Bak or FITC-Bim BH3 peptide. It counts as binding. Conditions: read-out: Ki for Inhibition of Mcl-1 by FPA assay.
For experiment [1], the system named is H929 human cancer cell lines. As to the kind of experiment: Cellular viability / proliferation (Cell TiterGlo, 72 h). It counts as cell-based. The following applies: Homo sapiens, NCI-H929, 72 h, read-out: GI50 on cellular proliferation of H929 human cancer cell lines, H929 cells, 72 h, Cell TiterGlo, 10% FBS. In short, it runs like this: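 H929 cells plated at 1,000/well in 10% FBS medium received a 2-fold serial compound dilution (top 50 μM, DMSO <1%) 24 h later. After 72 h, viability was read by CellTiter-Glo luminescence. IC50 came from a four-parameter fit.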

A value given as a limit tells only on which side of the number the result lay.

Chain of Mcl-1 (Q07820 172-327): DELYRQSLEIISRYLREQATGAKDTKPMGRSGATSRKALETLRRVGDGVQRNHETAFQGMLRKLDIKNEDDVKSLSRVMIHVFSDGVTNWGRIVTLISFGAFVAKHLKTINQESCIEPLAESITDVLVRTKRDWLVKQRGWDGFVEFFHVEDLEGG

`Cc1cc(OCCCc2c3n(c4c(-c5c(C)nn(C)c5C)c(Cl)ccc24)[C@H](C)CN(c2cccc4cc(C(=O)O)ccc24)C3=O)cc(C)c1Cl` [Example 186, (R)-5-(7-Chloro-10-(3-(4-chloro-3,5-dimethylphenoxy)propyl)-4-methyl-1-oxo-6-(1,3,5-trimethyl-1H-pyrazol-4-yl)-3,4-dihydropyrazino[1,2-a]indol-2(1H)-yl)-2-naphthoic acid]: the Ki on Mcl-1 is < 0.001 µM. In addition, the GI50 in experiment [1] was < 0.2 µM.
The corresponding values for `Cc1cc(OCCCc2c3n(c4c(-c5c(C)nn(C)c5C)c(Cl)ccc24)[C@H](C)CN(c2cc(C(=O)O)c4ccccc4c2)C3=O)cc(C)c1Cl` [Example 188, (R)-3-(7-Chloro-10-(3-(4-chloro-3,5-dimethylphenoxy)propyl)-4-methyl-1-oxo-6-(1,3,5-trimethyl-1H-pyrazol-4-yl)-3,4-dihydropyrazino[1,2-a]indol-2(1H)-yl)-1-naphthoic acid] are 0.0064 µM and 2.7 µM.
In the case of `Cc1cc(OCCCc2c3n(c4c(-c5c(C)nn(C)c5C)c(Cl)ccc24)[C@H](C)CN(c2ccc(C(=O)O)c4ccccc24)C3=O)cc(C)c1Cl` [Example 189, (R)-4-(7-Chloro-10-(3-(4-chloro-3,5-dimethylphenoxy)propyl)-4-methyl-1-oxo-6-(1,3,5-trimethyl-1H-pyrazol-4-yl)-3,4-dihydropyrazino[1,2-a]indol-2(1H)-yl)-1-naphthoic acid], the Ki on Mcl-1 was 0.0012 µM. In addition, in experiment [1], the GI50 was found to be 0.92 µM.
On to `Cc1cc(OCCCc2c3n(c4c(-c5c(C)nn(C)c5C)c(Cl)ccc24)[C@H](C)CN(c2c(C(=O)O)ccc4ccccc24)C3=O)cc(C)c1Cl` [Example 190, (R)-1-(7-Chloro-10-(3-(4-chloro-3,5-dimethylphenoxy)propyl)-4-methyl-1-oxo-6-(1,3,5-trimethyl-1H-pyrazol-4-yl)-3,4-dihydropyrazino[1,2-a]indol-2(1H)-yl)-2-naphthoic acid], for which the inhibition constant Ki on Mcl-1 was < 0.001 µM. Further, the GI50 in experiment [1] amounted to 2.2 µM.
With `Cc1cc(OCCCc2c3n(c4c(-c5c(C)nn(C)c5C)c(Cl)ccc24)[C@H](C)CN(c2cccc4cccc(C(=O)O)c24)C3=O)cc(C)c1Cl` [Example 191, (R)-8-(7-Chloro-10-(3-(4-chloro-3,5-dimethylphenoxy)propyl)-4-methyl-1-oxo-6-(1,3,5-trimethyl-1H-pyrazol-4-yl)-3,4-dihydropyrazino[1,2-a]indol-2(1H)-yl)-1-naphthoic acid], on Mcl-1, the Ki was < 0.001 µM. Further, the GI50 in experiment [1] turned out to be 3.2 µM.
The matching figures for `COc1ccc(N2C[C@@H](C)n3c(c(CCCOc4cc(C)c(Cl)c(C)c4)c4ccc(Cl)c(-c5c(C)nn(C)c5C)c43)C2=O)c2c1cc(C(=O)O)n2C` [Example 192, (R)-7-(7-Chloro-10-(3-(4-chloro-3,5-dimethylphenoxy)propyl)-4-methyl-1-oxo-6-(1,3,5-trimethyl-1H-pyrazol-4-yl)-3,4-dihydropyrazino[1,2-a]indol-2(1H)-yl)-4-methoxy-1-methyl-1H-indole-2-carboxylic acid]: < 0.001 µM and < 0.2 µM.
Turning to `Cc1cc(OCCCc2c3n(c4c(-c5c(C)nn(C)c5C)c(Cl)ccc24)[C@H](C)CN(c2cccc4cc(C(=O)O)oc24)C3=O)cc(C)c1Cl` [Example 194, (R)-7-(7-Chloro-10-(3-(4-chloro-3,5-dimethylphenoxy)propyl)-4-methyl-1-oxo-6-(1,3,5-trimethyl-1H-pyrazol-4-yl)-3,4-dihydropyrazino[1,2-a]indol-2(1H)-yl)benzofuran-2-carboxylic acid], the Ki at Mcl-1 is < 0.001 µM. Moreover, in experiment [1], the GI50 was 2.3 µM.
The matching figures for `Cc1cc(OCCCc2c3n(c4c(-c5c(C)nn(C)c5C)c(Cl)ccc24)[C@H](C)CN(c2cccc4c2C(=O)CC4)C3=O)cc(C)c1Cl` [Example 195, (R)-7-Chloro-10-(3-(4-chloro-3,5-dimethylphenoxy)propyl)-4-methyl-2-(3-oxo-2,3-dihydro-1H-inden-4-yl)-6-(1,3,5-trimethyl-1H-pyrazol-4-yl)-3,4-dihydropyrazino[1,2-a]indol-1(2H)-one]: 0.0036 µM and 1.8 µM.
`Cc1cc(OCCCc2c3n(c4c(-c5c(C)nn(C)c5C)c(Cl)ccc24)[C@H](C)CN(c2ccc4oc(C(=O)O)cc4c2)C3=O)cc(C)c1Cl` [Example 196, (R)-5-(7-Chloro-10-(3-(4-chloro-3,5-dimethylphenoxy)propyl)-4-methyl-1-oxo-6-(1,3,5-trimethyl-1H-pyrazol-4-yl)-3,4-dihydropyrazino[1,2-a]indol-2(1H)-yl)benzofuran-2-carboxylic acid]: the Ki at Mcl-1 is < 0.001 µM. In experiment [1], the GI50 was 3.4 µM.
The corresponding values for `Cc1cc(OCCCc2c3n(c4c(-c5c(C)nn(C)c5C)c(Cl)ccc24)[C@H](C)CN(c2cccc4c2cc(C(=O)O)n4C(C)C)C3=O)cc(C)c1Cl` [Example 197, (R)-4-(7-Chloro-10-(3-(4-chloro-3,5-dimethylphenoxy)propyl)-4-methyl-1-oxo-6-(1,3,5-trimethyl-1H-pyrazol-4-yl)-3,4-dihydropyrazino[1,2-a]indol-2(1H)-yl)-1-isopropyl-1H-indole-2-carboxylic acid] are < 0.001 µM and 0.67 µM.
The corresponding values for `Cc1cc(OCCCc2c3n(c4c(-c5c(C)nn(C)c5C)c(Cl)ccc24)[C@H](C)CN(c2cccc4c2cc(C(=O)O)n4CC2CCOCC2)C3=O)cc(C)c1Cl` [Example 198, (R)-4-(7-Chloro-10-(3-(4-chloro-3,5-dimethylphenoxy)propyl)-4-methyl-1-oxo-6-(1,3,5-trimethyl-1H-pyrazol-4-yl)-3,4-dihydropyrazino[1,2-a]indol-2(1H)-yl)-1-((tetrahydro-2H-pyran-4-yl)methyl)-1H-indole-2-carboxylic acid] are < 0.001 µM and 0.61 µM.
The matching figures for `Cc1cc(N2C[C@@H](C)n3c(c(CCCOc4cc(C)c(Cl)c(C)c4)c4ccc(Cl)c(-c5c(C)nn(C)c5C)c43)C2=O)c2c(c1)cc(C(=O)O)n2C` [Example 201, (R)-7-(7-Chloro-10-(3-(4-chloro-3,5-dimethylphenoxy)propyl)-4-methyl-1-oxo-6-(1,3,5-trimethyl-1H-pyrazol-4-yl)-3,4-dihydropyrazino[1,2-a]indol-2(1H)-yl)-1,5-dimethyl-1H-indole-2-carboxylic acid]: < 0.001 µM and < 0.2 µM.
`Cc1cc(OCCCc2c3n(c4c(-c5c(C)nn(C)c5C)c(Cl)ccc24)[C@H](C)CN(c2cccc4c2CCC4=O)C3=O)cc(C)c1Cl` [Example 203, (R)-7-Chloro-10-(3-(4-chloro-3,5-dimethylphenoxy)propyl)-4-methyl-2-(1-oxo-2,3-dihydro-1H-inden-4-yl)-6-(1,3,5-trimethyl-1H-pyrazol-4-yl)-3,4-dihydropyrazino[1,2-a]indol-1(2H)-one]: the Ki on Mcl-1 worked out at 0.006 µM. In experiment [1], the GI50 was found to be 3.9 µM.
The matching figures for `Cc1cc(OCCCc2c3n(c4c(-c5c(C)nn(C)c5C)c(Cl)ccc24)[C@H](C)CN(c2cn(C)c4cc(C#N)ccc24)C3=O)cc(C)c1Cl` [Example 206, (R)-3-(7-Chloro-10-(3-(4-chloro-3,5-dimethylphenoxy)propyl)-4-methyl-1-oxo-6-(1,3,5-trimethyl-1H-pyrazol-4-yl)-3,4-dihydropyrazino[1,2-a]indol-2(1H)-yl)-1-methyl-1H-indole-6-carbonitrile]: < 0.001 µM and 3.2 µM.
The corresponding values for `Cc1cc(OCCCc2c3n(c4c(-c5c(C)nn(C)c5C)c(Cl)ccc24)[C@H](C)CN(c2cn(C)c4ccc(C#N)cc24)C3=O)cc(C)c1Cl` [Example 208, (R)-3-(7-Chloro-10-(3-(4-chloro-3,5-dimethylphenoxy)propyl)-4-methyl-1-oxo-6-(1,3,5-trimethyl-1H-pyrazol-4-yl)-3,4-dihydropyrazino[1,2-a]indol-2(1H)-yl)-1-methyl-1H-indole-5-carbonitrile] are < 0.001 µM and 1.6 µM.
The matching figures for `Cc1cc(OCCCc2c3n(c4c(-c5c(C)nn(C)c5C)c(Cl)ccc24)[C@H](C)CN(c2cn(C)c4c(C#N)cccc24)C3=O)cc(C)c1Cl` [Example 209, (R)-3-(7-Chloro-10-(3-(4-chloro-3,5-dimethylphenoxy)propyl)-4-methyl-1-oxo-6-(1,3,5-trimethyl-1H-pyrazol-4-yl)-3,4-dihydropyrazino[1,2-a]indol-2(1H)-yl)-1-methyl-1H-indole-7-carbonitrile]: 0.0012 µM and 3.5 µM.
`Cc1cc(OCCCc2c3n(c4c(-c5c(C)ncnc5C)c(Cl)ccc24)[C@H](C)CN(c2cccc4c2cc(C(=O)O)n4C)C3=O)cc(C)c1Cl` [Example 210, 4-[(4R)-7-chloro-10-[3-(4-chloro-3,5-dimethyl-phenoxy)propyl]-6-(4,6-dimethylpyrimidin-5-yl)-4-methyl-1-oxo-3,4-dihydropyrazino[1,2-a]indol-2-yl]-1-methyl-indole-2-carboxylic acid]: on Mcl-1, the inhibition constant (Ki) stood at 0.0013 µM. In addition, the GI50 in experiment [1] stood at 1.5 µM.
The corresponding values for `Cc1cc(OCCCc2c3n(c4c(-c5c(C)nn(C)c5C)c(Cl)ccc24)[C@H](C)CN(c2cc(C(=O)O)cc4c2cc(C(F)(F)F)n4C)C3=O)cc(C)c1Cl` [Example 211, 4-[(4R)-7-chloro-10-[3-(4-chloro-3,5-dimethyl-phenoxy)propyl]-4-methyl-1-oxo-6-(1,3,5-trimethylpyrazol-4-yl)-3,4-dihydropyrazino[1,2-a]indol-2-yl]-1-methyl-2-(trifluoromethyl)indole-6-carboxylic acid] are 0.0031 µM and 11 µM.
The matching figures for `Cc1cc(OCCCc2c3n(c4c(-c5c(C)ncnc5C)c(Cl)ccc24)CCCN(c2cccc4cc(C(=O)O)ccc24)C3=O)cc(C)c1Cl` [Example 213, 5-[8-Chloro-11-[3-(4-chloro-3,5-dimethyl-phenoxy)propyl]-7-(4,6-dimethylpyrimidin-5-yl)-1-oxo-4,5-dihydro-3H-[1,4]diazepino[1,2-a]indol-2-yl]naphthalene-2-carboxylic acid]: < 0.001 µM and < 0.2 µM.

(Values after patent US11596639B2, “Substituted indole Mcl-1 inhibitors” (Vanderbilt University, priority 2016, dated 2023).)
